One series concerns the target T1, human IL-23R (Homo sapiens, UniProt Q5VWK5).
T1 construct: Nanoluc luciferase (Nluc); secretion signal encoded by the plasmid (not specified); expressed in transfected cells; crude membranes used in the assay
T1 sequence (Q5VWK5 22-629): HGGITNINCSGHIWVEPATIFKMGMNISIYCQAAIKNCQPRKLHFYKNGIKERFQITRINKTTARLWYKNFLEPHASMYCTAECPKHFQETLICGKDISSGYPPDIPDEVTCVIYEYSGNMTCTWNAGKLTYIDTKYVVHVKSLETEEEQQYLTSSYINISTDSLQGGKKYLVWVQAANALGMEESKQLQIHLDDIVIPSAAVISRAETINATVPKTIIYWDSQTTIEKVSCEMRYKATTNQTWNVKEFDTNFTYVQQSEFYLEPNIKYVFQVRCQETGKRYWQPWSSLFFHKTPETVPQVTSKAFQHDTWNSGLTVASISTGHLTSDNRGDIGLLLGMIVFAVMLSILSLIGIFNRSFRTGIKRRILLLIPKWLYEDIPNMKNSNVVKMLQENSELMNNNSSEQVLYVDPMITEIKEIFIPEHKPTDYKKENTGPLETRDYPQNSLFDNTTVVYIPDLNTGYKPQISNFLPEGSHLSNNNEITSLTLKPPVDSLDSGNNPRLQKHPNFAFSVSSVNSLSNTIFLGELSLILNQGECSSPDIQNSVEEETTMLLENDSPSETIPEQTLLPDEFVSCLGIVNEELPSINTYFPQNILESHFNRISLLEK
As to the kind of experiment: Binding assay: displacement of fluorophore (TAMRA)-labelled reference compound from human IL-23R (BRET, Nluc-IL23R fusion protein membranes). Particulars: for Emax: read-out: % displacement (hIL-23R binding). On the technique in general: Bioluminescence resonance energy transfer reports proximity on the nanometre scale.

Series [1] concerns IL-23 mediated STAT3 signalling (DB cells). As to the kind of experiment: Functional inhibition of IL-23 mediated STAT3 signalling (phospho-STAT3 Tyr705) in DB cells. It counts as cell-based, human. Particulars: for hIL-23 (pSTAT3) antagonist % inhibition: Table 3-2, maximal inhibitory response, EC80 of hIL-23. The method, boiled down:
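DB cells preincubated 15 min with inhibitor at 37° C, 5% CO2, then stimulated 90 min with hIL-23 at EC80. Lysate phospho-STAT3 measured by MSD electrochemiluminescence. Signal normalized to IL-23-alone and buffer wells; IC50 and maximal inhibition from concentration–response curves.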

The nature of series [2]: Peptide stability in simulated intestinal fluid (SIF). It is filed as in vitro ADME. Conditions: pig, 10 μM. A digest of the protocol:
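Peptide at 10 μM final in USP-type SIF (10 g/L porcine pancreatin, phosphate buffer pH 6.8), shaken at 37 °C. Samples at 0, 1 and 4 h quenched in acetonitrile/0.1% formic acid and analysed by LC-HRMS. Percent remaining calculated from absolute peak areas relative to time zero.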

The nature of series [3]: Peptide stability in simulated gastric fluid (SGF). It counts as in vitro ADME. Conditions: pig, pH 1.2, pepsin, 37° C. The method, boiled down:
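Peptide (10 μM final) incubated at 37 °C in USP SGF, pH 1.2 with porcine pepsin 3.2 g/L; aliquots at 0, 1 and 4 h quenched in acidified acetonitrile.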

The mark [4] stands for this setting: Table 3-2, EC80 of hIL-23, read-out: hIL-23 (pSTAT3) antagonist IC50.
[5] abbreviates: simulated intestinal fluid, SIF, pH 6.8, pancreatin, 37° C.
[6] abbreviates: EC80 of hIL-23, read-out: IC50 (pSTAT3).
Setting [7] is: simulated intestinal fluid, SIF, pH 6.8, pancreatin, 37° C., read-out: SIF (% remaining 4 h).

Like-named read-outs stand apart in the source and are kept apart here. *1 amine or outer side, *2 acyl side, *3 side chain or, on linkers, in order; H or OH if unused. Where a SMILES comes first, the peptide text is derived from it. Bridges are numbered along the chain shown (N, C = ends). [ ]: non-standard residue; d: D form. 2Nal = N[C@@H](Cc1ccc2ccccc2c1)C(=O)O; AEF = NCCOc1ccc(C[C@H](N)C(=O)O)cc1; X1 = O=C(Cc1ccc(CN[*:1])cc1)[*:2]; 3Pal = N[C@@H](Cc1cccnc1)C(=O)O; αMeL = CC(C)C[C@](C)(N)C(=O)O; β3hL = CC(C)C[C@H](N)CC(=O)O; Orn = NCCC[C@H](N)C(=O)O; Dab = NCC[C@H](N)C(=O)O

Consider `CNC(=O)[C@H](Cc1cccnc1)NC(=O)[C@H](CCN)NC(=O)[C@@H]1CCC(=O)NCc2ccc(cc2)CC(=O)N[C@@H](CO)C(=O)N[C@H]2CCC(=O)NCC[C@H](NC(=O)[C@H](CCC(=O)N(C)C)NC(=O)[C@H](Cc3c[nH]c4ccccc34)NC2=O)C(=O)N[C@@H](Cc2ccc(OCCN)cc2)C(=O)N[C@@H](Cc2ccc3ccccc3c2)C(=O)N[C@@](C)(CC(C)C)C(=O)N1` [Compound 30, [4-Aminomethyl-phenylacetyl](1c)*SE(2c)W[Q(2Me)][Dab](2c)[Y(2-aminoethoxy)][2-Nal][2-Me-Leu]E(1c)[Dab][3-(3-Pyridyl)-Ala]-[NHMe]] ([X1]SEWE(NMe2)[Dab][AEF][2Nal][αMeL]E[Dab][3Pal]-NHMe; lactam 3-6, N-10), for which the Emax at human IL-23R was found to be 104%. The IC50 (as a rule, the concentration that inhibits the measured activity by half) in series [1] (setting [4]) amounted to 0.077 nM. For the same compound, the “hIL-23 (pSTAT3) antagonist % inhibition” value in series [1] amounted to 103%. Moreover, in series [2] (setting [5]), the share remaining at 1 h, 10 µM is 94%. Moreover, in series [3], the share remaining at 1 h, 10 µM is 92% and the fraction remaining at 4 h, 10 µM is 89%.

Turning to `CC(C)C[C@]1(C)NC(=O)[C@H](Cc2ccc3ccccc3c2)NC(=O)[C@H](Cc2ccc(OCCN)cc2)NC(=O)[C@@H]2CCNC(=O)CC[C@H](NC(=O)[C@H](CO)NC(=O)Cc3ccc(cc3)CNC(=O)CC[C@@H](C(=O)N[C@@H](CCN)C(=O)N[C@H](Cc3c[nH]cn3)C(N)=O)NC1=O)C(=O)N[C@@H](Cc1c[nH]c3ccccc13)C(=O)N[C@@H](CCC(N)=O)C(=O)N2` [Compound 13, [4-Aminomethyl-phenylacetyl](1c)*SE(2c)WQ[Dab](2c)[Y(2-aminoethoxy)][2-Nal][2-Me-Leu]E(1c)[Dab][{d}H]-[NH2]], the Emax on human IL-23R was 100%. In addition, the IC50 in series [1] (setting [6]) and in series [1] (setting [4]) was 6.8 nM in each case. Moreover, in series [1], the “hIL-23 (pSTAT3) antagonist % inhibition” value turned out to be 99%. Further, the share remaining at 1 h, 10 µM in series [2] (setting [5]) was 84%; in series [3] it was 94%.

For the compound `CNC(=O)[C@H](Cc1cccnc1)NC(=O)[C@H](CCN)NC(=O)[C@@H]1CCC(=O)NCc2ccc(cc2)CC(=O)N[C@@H](CO)C(=O)N[C@H]2CCC(=O)NCC[C@H](NC(=O)[C@H](CCCN)NC(=O)[C@H](Cc3c[nH]c4ccccc34)NC2=O)C(=O)N[C@@H](Cc2ccc(OCCN)cc2)C(=O)N[C@@H](Cc2ccc3ccccc3c2)C(=O)N[C@@](C)(CC(C)C)C(=O)N1` [Compound 28, [4-Aminomethyl-phenylacetyl](1c)*SE(2c)W[Orn][Dab](2c)[Y(2-aminoethoxy)][2-Nal][2-Me-Leu]E(1c)[Dab][3-(3-Pyridyl)-Ala]-[NHMe]] ([X1]SEW[Orn][Dab][AEF][2Nal][αMeL]E[Dab][3Pal]-NHMe; lactam 3-6, N-10), the results for the concentration for half-maximal inhibition (IC50) (on human IL-23R; in series [1] (setting [4])) were 0.011 nM and 0.052 nM, respectively. Besides, the Emax at human IL-23R worked out at 97%. The “hIL-23 (pSTAT3) antagonist % inhibition” value in series [1] is reported as 101%. Further, the fraction remaining at 1 h, 10 µM in series [2] (setting [5]) was 106%; in series [3], 100%.

Regarding `CC(C)C[C@]1(C)NC(=O)[C@H](Cc2ccc3ccccc3c2)NC(=O)[C@H](Cc2ccc(OCCN)cc2)NC(=O)[C@@H]2CCNC(=O)CC[C@H](NC(=O)[C@H](CO)NC(=O)Cc3ccc(cc3)CNC(=O)CC[C@@H](C(=O)N[C@@H](CCN)C(=O)NCCCCc3cccnc3)NC1=O)C(=O)N[C@@H](Cc1c[nH]c3ccccc13)C(=O)N[C@@H](CCC(N)=O)C(=O)N2` [Compound 6, [4-Aminomethyl-phenylacetyl](1c)*SE(2c)WQ[Dab](2c)[Y(2-aminoethoxy)][2-Nal][2-Me-Leu]E(1c)[Dab]-[NH-(4-(pyridin-3-yl)butanyl)]], the results for the 50% inhibitory concentration (IC50) (on human IL-23R; in series [1] (setting [6]); in series [1] (setting [4])) were 0.037 nM, 3.2 nM and 3.2 nM, respectively. The Emax at human IL-23R came to 103%. The “hIL-23 (pSTAT3) antagonist % inhibition” value in series [1] is reported as 99%. Moreover, the fraction remaining at 1 h, 10 µM in series [2] (setting [5]) is 97%; in series [3], 110%. Also, the amount remaining at 4 h, 10 µM in series [3] is 108%.

With `CC(C)C[C@@H](CC(N)=O)NC(=O)[C@H](Cc1cccnc1)NC(=O)[C@H](CCN)NC(=O)[C@@H]1CCC(=O)NCc2ccc(cc2)CC(=O)N[C@@H](CO)C(=O)N[C@H]2CCC(=O)NCC[C@H](NC(=O)[C@H](CCC(N)=O)NC(=O)[C@H](Cc3c[nH]c4ccccc34)NC2=O)C(=O)N[C@@H](Cc2ccc(OCCN)cc2)C(=O)N[C@@H](Cc2ccc3ccccc3c2)C(=O)N[C@@](C)(CC(C)C)C(=O)N1` [Compound 11, [4-Aminomethyl-phenylacetyl](1c)*SE(2c)WQ[Dab](2c)[Y(2-aminoethoxy)][2-Nal][2-Me-Leu]E(1c)[Dab][3-(3-Pyridyl)-Ala][beta-hLeu]-[NH2]] ([X1]SEWQ[Dab][AEF][2Nal][αMeL]E[Dab][3Pal][β3hL]-NH2; lactam 3-6, N-10), the IC50 was 0.024 nM at human IL-23R, 0.68 nM in series [1] (setting [6]) and 0.68 nM in series [1] (setting [4]). In addition, the Emax at human IL-23R is 103%. Moreover, the “hIL-23 (pSTAT3) antagonist % inhibition” value in series [1] was found to be 98%. The share remaining at 1 h, 10 µM was 101% in series [2] (setting [5]) and 98% in series [3]. The share remaining at 4 h, 10 µM is 102% in series [2] (37 °C, simulated intestinal fluid pH 6.8 with porcine pancreatin, read-out: SIF (% after 4 h), intact peptide remaining) and 97% in series [3].

Turning to `CC(C)C[C@@H]1NC(=O)[C@H](Cc2c[nH]c3ccccc23)NC(=O)[C@H](Cc2c[nH]c3ccccc23)NC(=O)[C@@H]2CSCC(=O)CSC[C@H](NC(=O)[C@H]([C@@H](C)O)NC(=O)[C@@H](NC(=O)CN)CSCC(=O)CSC[C@@H](C(=O)N[C@@H](CO)C(N)=O)NC1=O)C(=O)N[C@@H](Cc1c[nH]c3ccccc13)C(=O)N[C@@H](CCC(=O)O)C(=O)N2` (single isomer, unassigned) [I1 (isomer 3), H-GC(1a)TC(2a)WEC(2a)WWLC(1a)S-[NH2], reference compound], the Emax at human IL-23R came to 105%. Moreover, in series [1] (setting [4]), the 50% inhibitory concentration (IC50) was above 1000 nM. Moreover, the “hIL-23 (pSTAT3) antagonist % inhibition” value in series [1] is 83%. Also, the amount remaining at 1 h, 10 µM in series [2] (setting [5]) is 0%; in series [3], 92%. The amount remaining at 4 h, 10 µM in series [2] (setting [7]) is 0%; in series [3], 94%.

For the compound `CNC(=O)[C@H](Cc1cccnc1)NC(=O)[C@](C)(CO)NC(=O)[C@@H]1CCC(=O)NCc2ccc(cc2)CC(=O)N[C@@H](CO)C(=O)N[C@H]2CCC(=O)NCC[C@H](NC(=O)[C@H](CCC(N)=O)NC(=O)[C@H](Cc3c[nH]c4ccccc34)NC2=O)C(=O)N[C@@H](Cc2ccc(OCCN)cc2)C(=O)N[C@@H](Cc2ccc3ccccc3c2)C(=O)N[C@@](C)(CC(C)C)C(=O)N1` [Compound 39, [4-Aminomethyl-phenylacetyl](1c)*SE(2c)WQ[Dab](2c)[Y(2-aminoethoxy)][2-Nal][2-Me-Leu]E(1c)[2-Me-Ser][3-(3-Pyridyl)-Ala]-[NHMe]], the IC50 on human IL-23R stood at 0.024 nM; in series [1] (setting [4]) it was 0.51 nM. Besides, the “hIL-23 (pSTAT3) antagonist % inhibition” value in series [1] stood at 101%. Further, the share remaining at 4 h, 10 µM was 85% in series [2] (setting [7]) and 96% in series [3].

As to `CNC(=O)[C@H](Cc1cccnc1)NC(=O)[C@H](CCN)NC(=O)[C@@H]1CCC(=O)NCc2ccc(cc2)CC(=O)N[C@@H](CO)C(=O)N[C@H]2CCC(=O)NCC[C@H](NC(=O)[C@H](CCNC(C)=O)NC(=O)[C@H](Cc3c[nH]c4ccccc34)NC2=O)C(=O)N[C@@H](Cc2ccc(OCCN)cc2)C(=O)N[C@@H](Cc2ccc3ccccc3c2)C(=O)N[C@@](C)(CC(C)C)C(=O)N1` [Compound 25, [4-Aminomethyl-phenylacetyl](1c)*SE(2c)W[Dab(Ac)][Dab](2c)[Y(2-aminoethoxy)][2-Nal][2-Me-Leu]E(1c)[Dab][3-(3-Pyridyl)-Ala]-[NHMe]] ([X1]SEW[Dab](Ac)[Dab][AEF][2Nal][αMeL]E[Dab][3Pal]-NHMe; lactam 3-6, N-10), the half-inhibitory concentration (IC50) is 0.011 nM at human IL-23R and 0.076 nM in series [1] (setting [4]). Further, in series [1], the “hIL-23 (pSTAT3) antagonist % inhibition” value was 100%. Also, the amount remaining at 1 h, 10 µM in series [2] (setting [5]) was 88%; in series [3], 93%.
